Counter-ions that a name gives are not always drawn.
Key:
Assay type in all cases: in vivo
olfactory bulbectomy rat [1] = experiment: Score of emotional responses in olfactory bulbectomy rat (antidepressant effect); conditions: for score of emotional responses: seventh day, Male Wistar olfactory bulbectomy rat, 10 mg/kg orally twice a day for 7 days, control group 20.1±0.7, sham 3.7±3.4
Excerpt: (§1) Antidepressant Effect and Antianxiety Effect for Olfactory Bulbectomy Rat
(§2) Male Wistar rat was anesthetized by injection of pentobarbital sodium, and fixed the head on a brain positioner. Either side of the bulbus olfactorius region of the head was drilled a hole with dental drill after the scalp incision. The either side of the bulbus olfactorius was aspirated and removed with an aspirator and then, the head was stitched up the scalp. The rat was defined as an olfactory bulbectomy animal. Alternatively, a sham surgery animal was anesthetized, fixed the brain, incised the scalp as well as the olfactory bulbectomy animal. The either side of the bulbus olfactorius region of the head was drilled a hole, and the either side of the bulbus olfactorius was not aspirated and removed and then, the head was stitched up the scalp. The olfactory bulbectomy animals were bred with isolated alone. In contrast, the sham surgery animals were not bred with isolated alone.
The olfactory bulbectomy animals were orally administered each the compound (I) of the present invention (10 mg/kg), the compound as positive control (desipramine hydrochloride (10 mg/kg); Wako Pure Chemical Industries, Ltd.), and control (0.5% methylcellulose suspension (5 mL/kg)) twice a day for 7 days. At that time, reactivity of emotional responses for 10 minutes for the first dosage one hour later of the first day and the seventh day was marked in accordance with an evaluation standard based on Gomi's method (Gomitami, other four people, Japanese pharmacologic magazine, 1983, Vol. 82, p 267-292).

[2] = system: corticosterone elevation evoked by administration of sulprostone; experiment: Inhibitory activity for corticosterone elevation evoked by administration of sulprostone; conditions: Male CD (SD) IGS rat; 10 mg/kg orally 1 hour before sulprostone 0.3 mg/kg subcutaneously; blood 1 hour after
Experimental: Inhibitory Activity for Corticosterone Elevation Evoked by Administration of Sulprostone
Male CD (SD) IGS rat were orally administrated EP3 antagonist [compound (I), compound (II) and compound (III) (respectively, 10 mg/5 mL/kg (0.5% methylcellulose suspension))], the control group were orally administrated 0.5% methylcellulose suspension (5 mL/kg). After being administered for an hour, all groups were administered sulprostone subcutaneously (0.3 mg/4 mL/kg). In contrast, non-evoked group were orally administrated 0.5% methylcellulose suspension (5 mL/kg), and after being administered for an hour, administered physiological saline subcutaneously (4 mL/kg). After 1 hour from subcutaneous administration, rats of all groups were collected blood. The withdrawn blood was added EDTA and aprotinin, centrifuged (12,000 rpm, 3 minutes), and measured the corticosterone concentration in the supernatant by using the method of EIA (Bachem Inc.) or ELISA (Endocrine Technologies Inc.).

olfactory bulbectomy rat [3] = experiment: Elevated plus-maze in olfactory bulbectomy rat (antianxiety effect); conditions: for antianxiety effect: elevated plus-maze
Excerpt: as §1, §2
Furthermore, each the olfactory bulbectomy animals and the sham surgery animals administered the compound (I) of the present invention, desipramine hydrochloride or control were located the center of platform toward the open arms on the elevated plus-maze for 10 minutes for the first dosage one hour later of the eighth day, and it was measured within a 5 minutes period. Each the time (second) in the open arms and the close arms were measured with video-imaging behavioral analysis equipment.

Row | SMILES | effective daily dosage in olfactory bulbectomy rat (olfactory bulbectomy rat [1]; olfactory bulbectomy rat, oral) [mg/kg per day] | score of emotional responses (olfactory bulbectomy rat [1]) | corticosterone elevation (corticosterone concentration in blood) [2] | antianxiety effect (olfactory bulbectomy rat [3]) | antidepressant effect (olfactory bulbectomy rat [1]; olfactory bulbectomy rat) | time in the open arms on the elevated plus-maze (olfactory bulbectomy rat [3]; eighth day, 1 hour after first dosage, 5 minutes period, FIG. 3) | score of emotional responses (in words) (olfactory bulbectomy rat [1]; olfactory bulbectomy rat, 10 mg/kg orally twice a day, FIG. 2)
1 | CNCCCN1c2ccccc2CCc2ccccc21 [desipramine hydrochloride, reference compound] | 20 | 7.5±3.4 |  |  |  |  | 
2 | Cc1cc(C)cc([C@@H](CC(C)C)NC(=O)c2cc(COc3cc(C)ccc3C)ccc2CCC(=O)O)c1 [compound (III), 3-(2-(((1R)-3-methyl-1-(3,5-dimethylphenyl)butyl)carbamoyl)-4-(2,5-dimethylphenoxymethyl)phenyl)propanoic acid] |  |  | inhibited | equivalent effect | equivalent effect |  | 
3 | Cc1cc(C)cc([C@@H](CC(C)C)NC(=O)c2cc(COc3cc(F)ccc3F)ccc2CCC(=O)O)c1 [compound (II), 3-(2-(((1R)-3-methyl-1-(3,5-dimethylphenyl)butyl)carbamoyl)-4-(2,5-difluorophenoxymethyl)phenyl)propanoic acid] |  |  | inhibited | equivalent effect | equivalent effect |  | 
4 | Cc1cc(C)cc([C@@H](CC(C)C)NC(=O)c2cc(COc3cc(F)ccc3C)ccc2CCC(=O)O)c1 [compound (I), 3-(2-((((1R)-1-(3,5-dimethylphenyl)-3-methylbutyl)amino)carbonyl)-4-(5-fluoro-2-methylphenoxymethyl)phenyl)propanoic acid] |  | 6.2±4.6 | inhibited | has antianxiety effect | has antidepressant effect | improved significantly | decreased significantly
